Format in all cases: in vivo, BALB/c-nude mice
Holding throughout (settings): 3 mg/kg, tail vein

One assay concerns LU1380. The assay is described as follows: Tumor growth inhibition in HuPrime xenograft lung cancer PDX model. Here is the method: (§1) Experimental scheme: The tumor tissue mass were prepared and subcutaneously inoculated into the anterior right flank of BALB/c-nude mice. When the tumor volume expanded to 80-160 mm^3, a randomized grouping was performed, and a model control group and administration groups were set. The mice were administrated from the first day of grouping, wherein the administration dose was adjusted according to the latest weight measurement. The mice were administrated via tail vein injection at an administration volume of 10 μl/g and an administration dosage of 3 mg/kg. After grouping and administration, the effects of tumor growth and treatment on normal behaviors of animals, specifically including the activity of experimental animals, food intake and drinking status, weight gain or loss status, and other abnormal conditions in eyes, hair, etc., were monitored. After grouping and administration, the weight of mice was measured twice a week to calculate the rate of weight change; at the same time, the long diameter and short diameter of the tumor were measured with a vernier caliper, and the tumor volume, relative tumor proliferation rate, tumor volume inhibition rate and other indicators were calculated. The formula of tumor volume is TV=0.5 a×b^2, wherein a is the long diameter of a tumor and b is the short diameter of a tumor.

A further assay concerns LU1206. The assay is described as above. Here is the method:
as §1

The next assay has as its system LU0367. Described as above. On the procedure: as §1
For the next assay, the system named is BR0438. The assay is described as follows: Tumor growth inhibition in HuPrime xenograft breast cancer PDX model. On the procedure: as §1
The subject of another assay is BR1283. The description is as above. Here is the method: as §1

As to `CC[C@H](C)[C@@H]([C@@H](CC(=O)N1CCC[C@H]1[C@H](OC)[C@@H](C)C(=O)N[C@H](C)[C@@H](O)c1ccccc1)OC)N(C)C(=O)[C@@H](NC(=O)[C@H](C(C)C)N(C)C(=O)OCc1ccc(NC(=O)C(CCCNC(N)=O)NC(=O)[C@@H](NC(=O)CCCCCN2C(=O)CC(SC[C@H](NC(=O)[C@H](CCCCN)NC(=O)[C@H](CC(=O)O)NC(=O)[C@H](CC(=O)O)NC(=O)Cc3ccc(CNC(=O)NCCCC[C@H](NC(=O)N[C@@H](CCC(=O)O)C(=O)O)C(=O)O)cc3)C(=O)N[C@@H](CCCCNC(=O)CC[C@H](NC(=O)c3ccc(NCc4cnc5[nH]c(N)nc(=O)c5n4)cc3)C(=O)O)C(N)=O)C2=O)C(C)C)cc1)C(C)C` (some centres unmarked) [CB-20BK], the TGI (as a rule, how far tumour growth fell short of that in controls) was determined as 30.02% with LU1380; 90.89% in the assay on LU1206; 71.34% with LU0367; 70.74% with BR0438; 96.49% in the assay on BR1283.

Values taken from US20220175761A1, “BI-LIGAND DRUG CONJUGATE AND USE THEREOF” (COHERENT BIOPHARMA (SUZHOU), LIMITED, priority 2019, published 2022).
